Laboratory results taken from the C3SDB collision cross section collection.

conditions: [M+2Na-H]+; instrument: DT; stepped-field

collision cross section (N2) [Å²]	Compound
271.84	CCCCCCCCCC/C=C\CCCCCCCCCC(=O)O[C@H](COC(=O)CCCCCCCCCCCC)COP(=O)(O)O [PA(35:01)]
286.46	CCCCC/C=C\C/C=C\CCCCCCCCCC(=O)O[C@H](COC(=O)CCCCCCC/C=C\CCCCCCCC)COP(=O)(O)OCCN [PE(38:03)]
285.85	CCCCC/C=C\C/C=C\C/C=C\CCCCCCC(=O)O[C@H](COC(=O)CCCCCCC/C=C\CCCCCCC)COP(=O)(O)OC[C@H](N)C(=O)O [PS(37:04)]
271.58	CCCCC/C=C\C/C=C\C/C=C\CCCCC(=O)O[C@H](COCCCCCCCCCCCCCCCC)COP(=O)(O)OCCN [PE(o34:03)]
289.29	CCCCC/C=C\C/C=C\CCCCCCCCCCCC(=O)O[C@H](COC(=O)CCCCCCCCCCCCCC)COP(=O)(O)OC[C@H](N)C(=O)O [PS(37:02)]
293.47	CCCCCCCCCC/C=C\CCCCCCCCCC(=O)O[C@H](COC(=O)CCCCCCCCCCCCCC)COP(=O)(O)OC[C@H](N)C(=O)O [PS(37:01)]
281	CC/C=C\C/C=C\C/C=C\C/C=C\CCCCC(=O)OC[C@H](COP(=O)(O)OCCN)OC(=O)CCCCCCCCC/C=C\C/C=C\CCCCC [PE(38:06)]

Further lines, the compound ahead of its results:

Compound	collision cross section (N2) [Å²]
CCCCC/C=C\C/C=C\CCCCCCCCCC(=O)O[C@H](COC(=O)CCCCCCC/C=C\C/C=C\CCCCC)COP(=O)(O)O [PA(38:04)]	276.1
CCCCC/C=C\C/C=C\CCCCCCCC(=O)OC[C@H](COP(=O)(O)OCCN)OC(=O)CCCCCCC/C=C\CCCCCCCCC [PE(37:03)]	282.12
CCCCC/C=C\C/C=C\C/C=C\CCCCCCC(=O)O[C@H](COC(=O)CCCCCCC/C=C\C/C=C\CCCCC)COP(=O)(O)OC[C@H](N)C(=O)O [PS(38:05)]	285.68
CCCCC/C=C\C/C=C\C/C=C\C/C=C\CCCCCC(=O)O[C@H](COC(=O)CCC/C=C\C/C=C\C/C=C\C/C=C\CCCCC)COP(=O)(O)OC[C@H](N)C(=O)O [PS(42:08)]	295.25
CCCCCC/C=C\CCCCCCCC(=O)OC[C@H](COP(=O)(O)OCCN)OC(=O)CCCCCCCCC/C=C\CCCCCCCC [PE(36:02)]	281.26
CC/C=C\C/C=C\C/C=C\C/C=C\C/C=C\C/C=C\CCC(=O)OC[C@H](COP(=O)(O)OC[C@H](N)C(=O)O)OC(=O)CCCCCCCCCCCCCCCCCC [PS(41:06)]	296.18
CCCCCCCCCC/C=C\CCCCCCCCCC(=O)O[C@H](COC(=O)CCCCCCCCCCC)COP(=O)(O)OC[C@H](N)C(=O)O [PS(34:01)]	280.81
CCCCC/C=C\C/C=C\CCCCCCCC(=O)OC[C@H](COP(=O)(O)OCCN)OC(=O)CCCCCCCCCCCCCCCCCCCC [PE(39:02)]	291.84
CCCCC/C=C\C/C=C\C/C=C\C/C=C\CCCCCC(=O)O[C@H](COC(=O)CCCC/C=C\C/C=C\C/C=C\CCCCC)COP(=O)(O)OCCN [PE(40:07)]	286.07

same assay, conditions: [M+Cl]-; instrument: DT; stepped-field

collision cross section (N2) [Å²]	Compound
296.13	CC/C=C\C/C=C\C/C=C\C/C=C\C/C=C\CCCC(=O)O[C@H](COC(=O)CCCCCCC/C=C\CCCCCCCC)COP(=O)([O-])OCC[N+](C)(C)C [PC(38:06)]
304.71	CCCCCCCCCCCCC=CC[C@@H](O)[C@H](COP(=O)([O-])OCC[N+](C)(C)C)NC(=O)CC=CCCCCCCCCCCCCCCCCCCCC [SM(42:02)]
292.56	CCCCCCCCCCCCC=CC[C@@H](O)[C@H](CO[C@@H]1O[C@H](CO)[C@@H](O)C(O)C1O)NC(=O)CCCCCCCCCCCCCCCCCCCCC (stereo partly drawn) [GlcCer(40:01)]
284.18	CCCCCCCCCCCCC=CC[C@@H](O)[C@H](CO[C@@H]1O[C@H](CO)[C@@H](O)C(O)C1O)NC(=O)CCCCCCCCCCCCCCCCC (stereo partly drawn) [GlcCer(36:01)]

same assay, conditions: [M+H-2H2O]+; instrument: DT; stepped-field

collision cross section (N2) [Å²]	Compound
273.88	CCCCCCCCCCCCC=CC[C@@H](O)[C@H](CO)NC(=O)CCCCCCCCCCCCCCCCCCCCCCC [Cer(42:01)]

same assay, conditions: [M+H-H2O]+; instrument: DT; stepped-field

collision cross section (N2) [Å²]	Compound
292.77	CCCCCCCCCCCCC=CC[C@@H](O)[C@H](CO[C@@H]1O[C@H](CO)[C@@H](O)C(O)C1O)NC(=O)CCCCCCCCCCCCCCCCCCCCC (stereo partly drawn) [GlcCer(40:01)]
271.44	CCCCCCCCCCCCC=CC[C@@H](O)[C@H](CO)NC(=O)CC=CCC=CCCCCCCCCCCCCCCCCC [Cer(42:03)]
279.86	CCCCCCCCCCCCC=CC[C@@H](O)[C@H](CO[C@@H]1O[C@H](CO)[C@@H](O)C(O)C1O)NC(=O)CCCCCCCCCCCCCCCCC (stereo partly drawn) [GlcCer(36:01)]

The next lines start with the compound.

Compound	collision cross section (N2) [Å²]
CCCCCCCCCCCCC=CC[C@@H](O)[C@H](CO)NC(=O)CCCCCCCCCCCCCCCCCCCCC [Cer(40:01)]	269.41
CCCCCCCCCCCCC=CC[C@@H](O)[C@H](CO[C@@H]1O[C@H](CO)[C@@H](O)C(O)C1O)NC(=O)CC=CCCCCCCCCCCCCCCCCCC (stereo partly drawn) [GlcCer(40:02)]	290.36
CCCCCCCCCCCCC=CC[C@@H](O)[C@H](CO)NC(=O)CCCCCCCCCCCCCCCCCCCCCCC [Cer(42:01)]	275.06

same assay, conditions: [M+HCOO]-; instrument: DT; stepped-field

collision cross section (N2) [Å²]	Compound
295.99	CC/C=C\C/C=C\C/C=C\C/C=C\C/C=C\CCCC(=O)O[C@H](COC(=O)CCCCCCC/C=C\CCCCCCCC)COP(=O)([O-])OCC[N+](C)(C)C [PC(38:06)]
305.63	CCCCCCCCCCCCC=CC[C@@H](O)[C@H](COP(=O)([O-])OCC[N+](C)(C)C)NC(=O)CC=CCCCCCCCCCCCCCCCCCCCC [SM(42:02)]
298.16	CCCCCCCCCCCCC=CC[C@@H](O)[C@H](CO[C@@H]1O[C@H](CO)[C@@H](O)C(O)C1O)NC(=O)CCCCCCCCCCCCCCCCCCCCC (stereo partly drawn) [GlcCer(40:01)]
287.29	CCCCCCCCCCCCC=CC[C@@H](O)[C@H](CO[C@@H]1O[C@H](CO)[C@@H](O)C(O)C1O)NC(=O)CCCCCCCCCCCCCCCCC (stereo partly drawn) [GlcCer(36:01)]

same assay, conditions: [M+H]+; instrument: DT; stepped-field

collision cross section (N2) [Å²]	Compound
302.04	CCCCCCCCCCCCC=CC[C@@H](O)[C@H](CO[C@@H]1O[C@H](CO)[C@@H](O)C(O)C1O)NC(=O)CC=CCCCCCCCCCCCCCCCCCCCCC (stereo partly drawn) [GlcCer(43:02)]
309.76	CCCCCCCCCCCCC=CC[C@@H](O)[C@H](COP(=O)([O-])OCC[N+](C)(C)C)NC(=O)CCCCCCCCCCCCCCCCCCCCCCCCC [SM(44:01)]
297.81	CCCCCCCCCCCCC=CC[C@@H](O)[C@H](COP(=O)([O-])OCC[N+](C)(C)C)NC(=O)CC=CCC=CCC=CCCCCCCCCCCCCCC [SM(42:04)]
295.85	CCCCCCCCCCCCC=CC[C@@H](O)[C@H](COP(=O)([O-])OCC[N+](C)(C)C)NC(=O)CCCCCCCCCCCCCCCCCCCC [SM(39:01)]
293.98	CCCCCCCCCCCCC=CC[C@@H](O)[C@H](CO[C@@H]1O[C@H](CO)[C@@H](O)C(O)C1O)NC(=O)CC=CCCCCCCCCCCCCCCCCCC (stereo partly drawn) [GlcCer(40:02)]
277.56	CCCCCCCCCCCCC=CC[C@@H](O)[C@H](CO)NC(=O)CCCCCCCCCCCCCCCCCCCCCCC [Cer(42:01)]
290.18	CCCCCCCCCCCCCCCCCCCC(=O)N[C@@H](CO[C@@H]1O[C@H](CO)[C@@H](O)C(O)C1O)[C@H](O)CCCCCCCCCCCCCCC (stereo partly drawn) [GlcCer(38:00)]
